Assay results: PMC3432061, “Biochemical and Mass Spectrometric Characterization of Human N-Acylethanolamine-Hydrolyzing Acid Amidase Inhibition” (PLoS ONE, 2012)

Columns and labels:
hNAAA [1] = target: T1, hNAAA (Homo sapiens, UniProt Q02083); test: 8 point fluorescent assay, hydrolysis of PAMCA by purified hNAAA; format: biochemical; conditions: for IC50: purified hNAAA, 2 hours preincubation, fluorescent assay, PAMCA 10 µM
T1 construct: the active mature form of the enzyme is a heterodimer, consisting of a non-covalent complex of the α- and β-subunits; hexa-histidine (C); made in house; host or cells: HEK293 (stably transfected)
T1 sequence (Q02083 126-359 limits assumed): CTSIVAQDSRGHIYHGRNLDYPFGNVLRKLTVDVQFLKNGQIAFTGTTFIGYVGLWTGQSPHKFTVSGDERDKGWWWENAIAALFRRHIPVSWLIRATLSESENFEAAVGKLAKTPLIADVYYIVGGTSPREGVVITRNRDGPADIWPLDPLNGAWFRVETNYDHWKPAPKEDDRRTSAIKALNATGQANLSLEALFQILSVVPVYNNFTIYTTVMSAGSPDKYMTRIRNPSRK
T1 sequence (Q02083 29-125 limits assumed): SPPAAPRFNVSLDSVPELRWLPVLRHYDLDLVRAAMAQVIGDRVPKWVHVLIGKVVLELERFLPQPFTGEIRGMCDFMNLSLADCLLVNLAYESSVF
Description: We previously described the fluorogenic substrate N-(4-methyl coumarin)palmitamide (PAMCA), which is hydrolyzed by NAAA to the fluorescent compound 7-amino-4-methyl coumarin (AMC) and palmitic acid. For hNAAA inhibition we conducted three point concentration assays with compounds to determine their potencies and ranges of enzyme inhibition. Purified activated NAAA (final concentration of 0.25 µg/mL) was incubated in assay buffer made up to a total volume of 180 µL, followed by addition of the compound dissolved in 10 µL DMSO (along with DMSO neat for the control sample) with the final concentrations for each compound of 1, 10, and 100 µM, in triplicate on a 96 well plate. These samples were allowed to incubate for 15 min at room temperature and then 10 µL of a PAMCA stock solution in DMSO (final PAMCA concentration 10 µM) was added. After 5 minutes of agitation on a shaking plate, the reaction was allowed to proceed at 37°C for 30 minutes and enzyme activity was monitored and calculated as previously described.
(§1) To set up 8 point fluorescent and radioactive assays for each point, the compound in 45 µL DMSO and purified activated NAAA (final enzyme concentration of 0.25 µg/mL) in 810 µL of NAAA assay buffer were incubated for 2 hours in order for the covalent compounds to reach full inhibition. For the fluorescent assays, 190 µL of each of the above samples (in triplicate) were transferred to a 96 well plate, followed by addition of 10 µL of a PAMCA stock solution in DMSO for a final PAMCA concentration of 10 µM. After 5 minutes of agitation on a shaking plate, the reaction was allowed to proceed at 37°C for 30 minutes and enzyme activity was monitored and calculated as previously described. The complete description of the novel fluorescent 8 point assay to determine the IC50 value for compounds inhibiting hNAAA activity will be detailed elsewhere.

FAAH = system: FAAH; set-up: method as in PMID 22270809; conditions: cited from earlier work
hNAAA [2] = target: T1, hNAAA; test: Rapid dilution experiment with hNAAA (reversibility); format: biochemical; conditions: AM6701: 100 nM for 120 min, twenty-fold dilution to 5 nM, up to 24 h
hNAAA [3] = target: T1, hNAAA; test: 8 point radioactive assay, hydrolysis of [14C]N-palmitoylethanolamine by purified hNAAA; format: biochemical; conditions: 2 hours preincubation, PEA 25 µM
Description: as §1
The 8 point radioactive assays, similar to that described by Saturnino et. al., [10] were performed by taking 95 µL of the enzyme-compound solution described above and adding a 5 µL solution of [^1,2 −14C]N-palmitoylethanolamine (10,000 c.p.m./sample) in DMSO, with a final PEA concentration of 25 µM. The reaction was performed for 30 minutes at 37°C and terminated by addition of 200 µL chloroform/methanol (1∶1, v/v). The aqueous layer containing the [^1,2 −14C]Ethanolamine was quantified by reading with a 1450 Microbeta Walluc Trilux Liquid Scintillation and Luminescence Counter. Inhibition constants were calculated using pro Fit software (Quantum Soft, Uetikon am See, Switzerland) and a Levenberg-Marquardt algorithm.

hNAAA [4] = target: T1, hNAAA; test: MALDI-TOF MS and MS/MS analysis of tryptic digest of inhibitor treated hNAAA; conditions: 10-fold molar excess of compound, 37°C, 2 hours, pH 4.5
Description: To 10 µg (0.2 nmol) of purified and activated NAAA in 18 µL of 100 mM citrate-sodium phosphate buffer (pH 4.5) 2 µL of a DMSO solution containing 2 nmol of the compound of interest were added or 2 µL DMSO. The inhibitor and DMSO treated enzyme solutions were incubated at 37°C for 2 hours and then desalted prior to digestion. These were desalted by re-concentrating 3 times to original volume after 25 fold dilution with 50 mM ammonium bicarbonate buffer, pH 8.0, using 10 kDa membrane Ultra-0.5 Centrifugal Filters (Millipore). The NAAA samples were incubated overnight at 37°C with MS-grade trypsin (“Trypsin Gold”, Promega) at a NAAA:trypsin mass to mass ratio of 100∶1. The tryptic digested NAAA was analyzed immediately or frozen at −80°C for future analysis.
0.5 µL of the trypsin digested NAAA was mixed with 0.5 µL α-cyano-4-hydroxycinnaminic acid matrix solution (5 mg/mL dissolved in 50% acetonitrile, 50% water, and 0.1% trifluoroacetic acid) and spotted onto an Opti-TOF 384-well plate insert. MALDI-TOF MS spectra were acquired on a 4800 MALDI TOF/TOF mass spectrometer (Applied Biosystems, Foster City, CA) fitted with a 200-Hz solid state UV laser (wavelength 355 nm). The spectra of the peptides were acquired in reflectron mode. The conditions used for the MS experiments and instrument calibration were performed as described by Zvonok et. al.

hNAAA [5] = target: T1, hNAAA; test: Fluorometric assay to determine kinact/Ki for irreversible hNAAA inhibition; format: biochemical; conditions: for kinact: PAMCA 12.4 µM = 2×Km, no preincubation, read for 120 minutes; for kinact/K I: second order rate constant
Description: The k inact and K I values for covalent inhibitors were determined similar to Mileni et. al. […] The data for each inhibitor concentration ([I]) were fit to a first order equation (Eq. 1) shown below using KaleidaGraph (Synergy Software, Reading, PA) in order to determine k observed (k obs), where Ft is the fluorescence at time t, F 0 is the fluorescence at t = infinite time, F 1 is the total fluorescence change, and k obs is the first order rate constant for enzyme inactivation. To determine the inhibitor dissociation constant (K I) and the first order rate constant for enzyme inactivation at infinite inhibitor concentration (k inact), the k obs values for each [I] obtained above were fit to a curve using pro Fit software and a Levenberg-Marquardt algorithm according to Eq. 2, which simplifies to Eq. 3 at [S] = 2×K m as used in this experiment. [drawing 1] (1) [drawing 2] (2) [drawing 3] (3)

recombinant rat NAAA = conditions: substrate heptadecenoylethanolamide, HEK293 cell lysate, LC/MS based assay; cited from earlier work
hNAAA [6] = target: T1, hNAAA; set-up: method as in PMID 22040171; conditions: substrate of hNAAA; cited from earlier work
hNAAA [7] = target: T1, hNAAA; test: Lineweaver-Burk (double reciprocal) plot of hNAAA inhibition; format: biochemical
rFAAH = target: T2, rFAAH (Rattus norvegicus, UniProt P97612); test: rFAAH inhibition (selectivity); format: biochemical
T2 sequence (P97612 1-579): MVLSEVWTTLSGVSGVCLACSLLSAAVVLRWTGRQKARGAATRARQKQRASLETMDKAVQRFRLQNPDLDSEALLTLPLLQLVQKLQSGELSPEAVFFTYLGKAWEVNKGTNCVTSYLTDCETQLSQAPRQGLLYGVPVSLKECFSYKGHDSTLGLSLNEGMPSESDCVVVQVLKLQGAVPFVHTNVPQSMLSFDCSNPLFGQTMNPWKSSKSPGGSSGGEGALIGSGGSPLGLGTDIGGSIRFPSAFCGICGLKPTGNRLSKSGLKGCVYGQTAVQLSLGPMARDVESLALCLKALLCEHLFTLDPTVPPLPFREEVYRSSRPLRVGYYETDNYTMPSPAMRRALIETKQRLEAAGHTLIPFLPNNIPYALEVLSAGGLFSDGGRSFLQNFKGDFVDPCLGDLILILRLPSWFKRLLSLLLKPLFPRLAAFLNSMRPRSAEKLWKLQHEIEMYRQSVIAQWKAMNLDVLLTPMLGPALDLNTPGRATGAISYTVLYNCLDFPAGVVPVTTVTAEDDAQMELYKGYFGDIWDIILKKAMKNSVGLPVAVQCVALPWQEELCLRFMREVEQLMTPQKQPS

hMGL = target: T3, hMGL (Homo sapiens, UniProt Q99685); test: hMGL inhibition (selectivity); format: biochemical
T3 sequence (Q99685 1-303): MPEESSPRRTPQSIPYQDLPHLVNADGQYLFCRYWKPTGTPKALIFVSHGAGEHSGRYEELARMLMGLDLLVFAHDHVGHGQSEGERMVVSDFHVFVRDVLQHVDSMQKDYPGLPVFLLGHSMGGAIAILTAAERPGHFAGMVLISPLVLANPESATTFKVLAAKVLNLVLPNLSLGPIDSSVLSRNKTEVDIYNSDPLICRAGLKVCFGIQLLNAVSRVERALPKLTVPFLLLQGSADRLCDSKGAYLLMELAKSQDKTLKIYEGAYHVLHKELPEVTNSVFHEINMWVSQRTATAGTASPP

Compound | Decrease of IC50 on extension of preincubation time to 120 min (hNAAA [1]; hNAAA, data not presented) | IC50 (hNAAA [1]) [nM] | IC50 (FAAH) [nM] | Recovery of enzyme activity after rapid dilution (hNAAA [2]) | IC50 (hNAAA [3]) [nM] | Covalent modification of hNAAA seen by MALDI-TOF MS of tryptic digest (hNAAA [4]) | kinact (hNAAA [5]) [s⁻¹] | kinact/K I (hNAAA [5]) [M⁻¹ s⁻¹] | IC50 (recombinant rat NAAA) [nM] | Km (hNAAA [6]) [µM] | Effect of longer pre-incubation on IC50 (hNAAA [1]; hNAAA) | Type of inhibition (Lineweaver-Burk plot) (hNAAA [7]) | IC50 (rFAAH) [nM] | IC50 (hMGL) [nM]
CN(C)C(=O)n1nnc(Cc2ccc(-c3ccccc3)cc2)n1 [AM6701, 5-((biphenyl-4-yl)methyl)-N,N-dimethyl-2H-tetrazole-2-carboxamide] | more than 50 fold | 7.7 ± 0.2 | 1.2 | no recovery of enzyme activity | 7.2 ± 2.5 | carbamylation of the N-terminal cysteine | 0.0007 | 55000 | – | – | – | – | – | –
O=C(N[C@H]1COC1=O)OCc1ccccc1 [N-Cbz-serine β-lactone, N-Benzyloxycarbonyl-L-serine β-lactone, reference compound] | – | 1700 ± 200 | – | slow regeneration of enzyme catalytic activity | 1900 ± 500 | Cys126 modified by the inhibitor | 0.000383 | 290 | 2960 ± 300 | – | – | – | – | –
CCCCCCCCCCCCCCCC(=O)NCCO [PEA, N-palmitoylethanolamine] | – | – | – | – | – | – | – | – | – | 21 | – | – | – | –
CCCCCCCCCCCCCCCN=C=S [AM9023, 1-isothiocyanatopentadecane] | – | 350 ± 70 | – | fully recovered | 600 ± 130 | identical | – | – | – | – | unaffected | competitive type inhibitor | > 10000 | > 10000
CCCCCCCCCCCCCCCC(=O)Nc1ccc2c(C)cc(=O)oc2c1 [PAMCA, N-(4-methylcoumarin)palmitamide] | – | – | – | – | – | – | – | – | – | 6.2 | – | – | – | –
